Reference: patent US20160193240A1, “Ulmoside-A: Useful For Prevention Or Cure Of Metabolic Diseases” (COUNCIL OF SCIENTIFIC & INDUSTRIAL RESEARCH, priority 2013, published 2016)
Marks after values point to notes of the source that are not given here.

Tests used:
C2C12 myotubes = experiment: Glucose uptake assay (3H-deoxyglucose) in C2C12 myotubes; assay type: cell-based, mouse; conditions: 10 nM
Method: A. ULMA enhances glucose uptake in C2C12 myotubes. C2C12 myotubes in 24 well plates were treated with vehicle (DMSO) or 10 nM ULMA and glucose uptake assay was performed in presence or absence of 100 nM insulin. Data is mean±SEM of six independent experiments performed in triplicates. *p<0.05, **p<0.01, ***p<0.001 as determined by two tailed unpaired student's t-test.
C. siAdipoR1 eliminates ULMA induction of glucose uptake. C2C12 myotubes were transfected with nonsilencing siC or siAdipoR1. 72 h after transfection, cells were treated for 24 h with 10 nM ULMA and glucose uptake assay was performed. Data is mean±SEM of three independent experiments performed in triplicates. ***p<0.001 as determined by two tailed unpaired student's t-test.
Adiponectin is known to enhance glucose uptake and fatty acid oxidation in skeletal muscle and myotubes (T. Kadowaki, T. Yamauchi, N. Kubota, K. Hara, K. Ueki, K. Tobe. J Clin Invest. 116(7): 1784-1792. 2006; T. Yamauchi, J. Kamon, Y. Ito, A. Tsuchida, T. Yokomizok, S. Kita, T. Sugiyama, M. Miyagishi, K. Hara, M. Tsunodaq, K. Murakamiq, T. Ohteki, S. Uchida, S. Takekawa, H. Waki, N. H. Tsuno, Y. Shibata, Y. Terauchi, P. Froguel, K. Tobe, S. Koyasu, K. Taira, T. Kitamura, T. Shimizuk, R. Nagai, T. Kadowaki. Nature. 423(6941):762-769. 2003). Therefore the ability of ULMA to influence insulin-dependent and independent glucose uptake and fatty acid oxidation was investigated in C2C12 myotubes. […] Subsequently, the cells were lysed in 100 μl 0.5N NaOH and 5 μl lysate was used for protein concentration determination, and rest of the lysate was used to measure cellular radioactivity in a beta-counter (Beckman Coulter). […] Radioactivity that had become adsorbed onto the filter discs was then quantified by liquid scintillation counting in a beta-counter (Beckman Coulter). The cells were lysed with 200 μl 0.5N NaOH and 5 μl of the lysate was used for protein estimation using Bradford assay and the radioactivity was normalized with the protein content.

wistar rats [1] = experiment: Dexamethasone-induced skeletal muscle atrophy in rats (limb appearance, QRT-PCR of PGC-1α and atrogenes); assay type: in vivo, rat
Method: Following 15 d indicated treatment of rats, the skeletal muscle (pulled hind limb) were collected and RNA was extracted from them and QRT-PCR was performed in a Roche lightcycler 480 machine. Data represents mean+/−SEM from six animals done in triplicates. “a” statistical analysis between Vehicle and Dexamethasone-treated groups, “b”, statistical analysis between dex-treated and dex+ ULMA groups. P<0.05, as determined by student's t-test, n=6.
Blood was collected from cardiac punctures.
RNA was isolated from skeletal muscles using Trizol (according to manufacturers' protocol) and reverse transcribed as described above and either PGC-1α expression or muscle atrophy related genes (atrogenes) expression were examined.

wistar rats [2] = experiment: Dexamethasone-mediated reduction in serum osteocalcin in rats (ELISA); assay type: in vivo, rat; conditions: Dex + ULMA, 14 days
Method: Food intake was measured daily and the rats were weighed each week. The rats were fasted overnight (O/N) on day 14th and on day 15th oral glucose tolerance test was performed. Following oral glucose tolerance test (OGTT), rats were kept with food and water ad libitum for one day. On day 16th, rats were fasted again O/N and then euthanized. At autopsy, from 5 animals/group, tissues were collected and snap frozen in liquid nitrogen. Blood was collected from cardiac punctures. Plasma was separated from whole blood by centrifugation at 3000 rpm for 20 min immediately after collection of blood and stored at −80° C. until further analysis. […] (quadriceps) skeletal muscles were processed for RNA and protein extraction, followed by quantitative real-time PCR (QRT-PCR) analysis. Two animals from each group were used for photography post autopsy.

O=C1c2c(cc(O)c([C@@H]3O[C@H](CO)[C@@H](O)[C@H](O)[C@H]3O)c2O)O[C@@H](c2ccc(O)c(O)c2)[C@@H]1O [ULMA, (2S,3S)-(+)-3′,4′,5,7-tetrahydroxydihydroflavonol-6-C-β-D-glucopyranoside]
ULMA-induced glucose uptake with siAdipoR1 (not siC) (C2C12 myotubes; 24 h, 72 h after siRNA transfection): completely eliminated
glucose uptake in absence of insulin (C2C12 myotubes; 24 hours): enhanced
glucose uptake in presence of insulin (C2C12 myotubes; 24 hours, 100 nM insulin 20 min): enhanced
Dex-caused reduction of skeletal muscle PGC-1α level (wistar rats [1]; Dex + ULMA): protected
protection against induction of atrogenes by dexamethasone (wistar rats [1]; Dex + ULMA): completely protected
skeletal muscle PGC-1α expression (wistar rats [1]; ULMA alone): robust induction
Dex-induced limb abnormality (wistar rats [1]; ULMA co-treatment with Dex): prevented it
Osteocalcin (ng/ml) (wistar rats [2]): 387.7 ± 16.1^a ng/ml
